From PubChem BioAssay AID624129 (Sanford-Burnham Center for Chemical Genomics, 2012)
Calls of active or inactive are those of the source. No rule for the calls is given here.

Key:
Experiment in all cases: CXCR6 receptor antagonists, dose response, cell-based, beta-arrestin, DiscoveRx, APJ panel, uHTS hits (AID 624129)
[1] = target: C-X-C chemokine receptor type 6 (Homo sapiens) (UniProt O00574); settings: CXCR6 beta-arrestin (DiscoveRx) antagonist cell assay; for inhibition: CXCR6, run 1, dose range 2, at 80 µM (top of the series)
Sequence of C-X-C chemokine receptor type 6 (Homo sapiens) (O00574 whole entry, looked up): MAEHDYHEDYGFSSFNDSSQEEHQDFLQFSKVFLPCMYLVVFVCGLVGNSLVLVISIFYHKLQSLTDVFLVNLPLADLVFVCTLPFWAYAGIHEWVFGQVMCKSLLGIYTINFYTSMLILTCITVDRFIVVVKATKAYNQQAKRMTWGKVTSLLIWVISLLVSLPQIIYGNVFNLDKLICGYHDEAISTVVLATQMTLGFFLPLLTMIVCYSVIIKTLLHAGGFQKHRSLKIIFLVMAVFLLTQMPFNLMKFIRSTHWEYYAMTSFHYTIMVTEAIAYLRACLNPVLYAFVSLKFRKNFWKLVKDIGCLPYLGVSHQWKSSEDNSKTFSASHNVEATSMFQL

[2] = target: Beta-galactosidase (Escherichia coli) (UniProt Q8VNN2); settings: CXCR6 beta-arrestin (DiscoveRx) antagonist cell assay, b-galactosidase
Sequence of Beta-galactosidase (Escherichia coli) (Q8VNN2 whole entry, looked up): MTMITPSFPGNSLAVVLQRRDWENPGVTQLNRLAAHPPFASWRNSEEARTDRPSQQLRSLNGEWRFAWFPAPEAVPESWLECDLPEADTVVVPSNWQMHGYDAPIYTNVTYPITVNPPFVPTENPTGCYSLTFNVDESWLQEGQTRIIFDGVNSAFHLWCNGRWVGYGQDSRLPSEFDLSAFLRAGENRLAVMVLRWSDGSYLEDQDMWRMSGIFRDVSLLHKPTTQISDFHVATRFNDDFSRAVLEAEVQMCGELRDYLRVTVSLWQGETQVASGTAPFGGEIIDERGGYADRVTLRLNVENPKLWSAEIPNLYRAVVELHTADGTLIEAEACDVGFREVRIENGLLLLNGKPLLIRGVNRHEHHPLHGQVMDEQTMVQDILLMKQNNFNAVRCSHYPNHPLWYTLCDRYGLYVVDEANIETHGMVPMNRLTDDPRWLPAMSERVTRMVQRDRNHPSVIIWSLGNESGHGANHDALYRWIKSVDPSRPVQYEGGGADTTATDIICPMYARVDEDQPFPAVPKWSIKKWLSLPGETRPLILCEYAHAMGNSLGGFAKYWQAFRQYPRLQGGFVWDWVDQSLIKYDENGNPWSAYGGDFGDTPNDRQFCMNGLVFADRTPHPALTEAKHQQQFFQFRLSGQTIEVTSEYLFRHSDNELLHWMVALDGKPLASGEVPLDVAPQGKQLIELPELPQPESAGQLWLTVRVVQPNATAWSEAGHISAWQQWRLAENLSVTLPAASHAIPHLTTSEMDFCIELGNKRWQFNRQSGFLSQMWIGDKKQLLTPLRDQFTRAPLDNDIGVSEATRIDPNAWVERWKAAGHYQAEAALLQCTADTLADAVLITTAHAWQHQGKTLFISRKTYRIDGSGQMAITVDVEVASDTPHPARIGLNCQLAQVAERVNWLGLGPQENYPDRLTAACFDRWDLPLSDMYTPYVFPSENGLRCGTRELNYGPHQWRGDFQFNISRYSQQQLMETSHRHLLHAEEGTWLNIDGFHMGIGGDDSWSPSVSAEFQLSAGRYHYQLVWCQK

[3] = target: Apelin receptor (Homo sapiens) (UniProt P35414); settings: CXCR6 beta-arrestin (DiscoveRx) antagonist cell assay, APJ
[4] = target: C-C chemokine receptor type 6 (Homo sapiens) (UniProt P51684); settings: CXCR6 beta-arrestin (DiscoveRx) antagonist cell assay
[5] = CXCR6, dose range 1, mean IC50 across replicates
[6] = dose range 1, mean IC50 across replicates
[7] = CCR6, dose range 1, mean IC50 across replicates

| Compound | IC50 ([1]; CXCR6, dose range 1) | IC50 [1, 5] | inhibition [1] | IC50 ([1]; CXCR6, run 2, dose range 1) | IC50 ([2]; dose range 1) | IC50 [2, 6] | IC50 [3, 6] | IC50 ([3]; run 2, dose range 1) | IC50 ([3]; run 3, dose range 1) | IC50 [4, 7] | IC50 ([4]; CCR6, run 2, dose range 1) | IC50 ([3]; dose range 1) | IC50 ([4]; CCR6, dose range 1) | IC50 ([1]; CXCR6, run 1, dose range 2) | IC50 ([1]; CXCR6, run 2, dose range 2) |
| --- | --- | --- | --- | --- | --- | --- | --- | --- | --- | --- | --- | --- | --- | --- | --- |
| Cc1cc(C)c2ccc(N)nc2c1O | > 80 µM (inactive) | > 80 µM | -25.6% | > 80 µM | > 80 µM (inactive) | > 80 µM | > 80 µM | > 80 µM | > 80 µM | > 80 µM | > 80 µM |  |  |  |  |
| O=C1c2sc3nc4ccccc4n3c2C(=O)N1c1ccccc1Cl | inactive | 21 µM | 103% | 15 µM | 30.8 µM | 30.8 µM | 18 µM | 16.9 µM | 13.5 µM | 14.9 µM | 12.9 µM | 23.5 µM | 16.9 µM |  |  |
| Cc1cccc(CSc2cccc3cccnc23)c1 | 3.79 µM | 3.51 µM |  | 4.39 µM | > 80 µM (inactive) | > 80 µM | 3.95 µM | 4.91 µM | 4.08 µM | 4.64 µM | 5.33 µM | 2.86 µM | 3.94 µM | 2.78 µM | 3.09 µM |
| O=C1c2ccccc2C(=O)N1OS(=O)(=O)c1ccc(F)cc1 | > 80 µM (inactive) | > 80 µM | 69.8% | > 80 µM | > 80 µM (inactive) | > 80 µM | 22 µM | 26.8 µM | 19.4 µM | 34.6 µM | 51.5 µM | 20 µM | 17.7 µM |  |  |
| CCCOc1cccc(-c2cc(C(=O)N/N=C/c3ccccn3)c3ccccc3n2)c1 | 9.05 µM | 8.66 µM |  | 14.5 µM | > 80 µM (inactive) | > 80 µM | 7.37 µM | 9.25 µM | > 80 µM | 3.67 µM | 4.63 µM | 5.48 µM | 2.7 µM | 4.31 µM | 6.79 µM |
| Oc1cccc2ccc(/C=C/c3cccs3)nc12 |  | 4.43 µM |  | 6.87 µM | > 80 µM (inactive) | > 80 µM | 4.98 µM | > 80 µM | 4.89 µM | 5.65 µM | 7.36 µM | 5.07 µM | 3.95 µM | 2.77 µM | 3.64 µM |
| N#CC(C#N)=C1C=CC=CN1/C(=C\c1ccco1)C(=O)c1ccc(Cl)cc1 | inactive | 28 µM | 125% | 25 µM | 15.1 µM | 15.1 µM | 32.5 µM | 33.6 µM | 33.7 µM | 18.7 µM | 16.4 µM | 30.1 µM | 20.9 µM |  |  |
| COc1ccc(CN2C(=O)C(Cc3ccccc3)Nc3ncnc(N4CCN(c5ccccc5)CC4)c32)cc1 (stereo not drawn) | 8.37 µM | 5.48 µM |  | 4.54 µM | 7.82 µM | 7.82 µM | 9.3 µM | 9.95 µM | 11.3 µM | 4.33 µM | 4.05 µM | 6.61 µM | 4.6 µM | 3.14 µM | 5.88 µM |
| O=C1C=CC2(C=C1)O[C@H](Cc1ccccc1)[C@@H](Cc1ccccc1)O2 | 8.93 µM | 8.35 µM |  | 7.5 µM | > 80 µM (inactive) | > 80 µM | 8.39 µM | 8.95 µM | 8.25 µM | 4.75 µM | 5.06 µM | 7.98 µM | 4.44 µM | 6.66 µM | 10.3 µM |
| Cc1ccsc1/C=C/c1ccc2cccc(O)c2n1 | 6.32 µM | 5.47 µM |  | 8.63 µM | > 80 µM (inactive) | > 80 µM | 7.71 µM | 9.69 µM | 6.7 µM | 6.51 µM | 7.72 µM | 6.75 µM | 5.29 µM | 3.12 µM | 3.82 µM |
| O=[N+]([O-])c1c(Nc2ccccc2O)cc(Cl)c2nonc12 | inactive | 13 µM | 123% | 9.03 µM | > 80 µM (inactive) | > 80 µM | 23.2 µM | 24.4 µM | 25.2 µM | 12.6 µM | 13.4 µM | 20 µM | 11.8 µM |  |  |
| CCC(=O)OCCNc1cc(Sc2nc3ccccc3s2)c2nonc2c1[N+](=O)[O-] | 8.94 µM | 8.4 µM |  | 8.87 µM | > 80 µM (inactive) | > 80 µM | 28 µM | 23.1 µM | > 80 µM | 8.72 µM | 8.5 µM | 32.9 µM | 8.93 µM | 10 µM | 5.77 µM |
| Cc1cccc(C)c1NC(=O)c1nc(S(=O)(=O)Cc2ccccc2)ncc1Cl | > 80 µM (inactive) | > 80 µM | -9.6% | > 80 µM | > 80 µM (inactive) | > 80 µM | > 80 µM | > 80 µM | > 80 µM | > 80 µM | > 80 µM |  |  |  |  |
| C=C1CC(COc2ccc3c(C)c(Cl)c(=O)oc3c2)(c2ccccc2)OC1=O (stereo not drawn) | 3.92 µM | 3.92 µM | 55.2% | > 80 µM | > 80 µM (inactive) | > 80 µM | 35.3 µM | 54.2 µM | 16.4 µM | 1.42 µM | 2.66 µM | > 80 µM (inactive) | 0.174 µM |  |  |
| O=C(CSc1nc(-c2ccco2)cc(C(F)(F)F)n1)NCCCn1ccnc1 | inactive | 16.9 µM | 126% | 18.3 µM | > 80 µM (inactive) | > 80 µM | 21.4 µM | 22.8 µM | 20.7 µM | 19.3 µM | 21.1 µM | 20.7 µM | 17.6 µM |  |  |
| FC(F)(F)c1cnc(NNC(=S)Nc2ccccc2Cl)c(Cl)c1 | > 80 µM (inactive) | > 80 µM | 2.4% | > 80 µM | > 80 µM (inactive) | > 80 µM | > 80 µM | > 80 µM | > 80 µM | > 80 µM | > 80 µM |  |  |  |  |
| CC(Oc1cccc(Cl)c1)C(=O)Nc1nc(-c2ccccn2)cs1 (stereo not drawn) | 8.97 µM | 7.17 µM |  | 7.93 µM | > 80 µM (inactive) | > 80 µM | 8.47 µM | 8.75 µM | 8.64 µM | 7.6 µM | 8.37 µM | 8.02 µM | 6.82 µM | 5.61 µM | 6.18 µM |
| CCS(=O)(=O)c1ncc(Cl)c(C(=O)Nc2ccc(S(=O)(=O)N3CCCC(C)C3)cc2)n1 (stereo not drawn) | 9.52 µM | 9.06 µM |  | 10.3 µM | > 80 µM (inactive) | > 80 µM | 8.75 µM | 8.93 µM | 8.02 µM | 7.16 µM | 7.39 µM | 9.3 µM | 6.92 µM | 7.57 µM | 8.84 µM |
| CCCC1CCC(=NNC(=S)NCCc2ccccc2)CC1 (stereo not drawn) | > 80 µM (inactive) | > 80 µM | -19% | > 80 µM | > 80 µM (inactive) | > 80 µM | > 80 µM | > 80 µM | > 80 µM | > 80 µM | > 80 µM |  |  |  |  |
| C/C(=N\NC(=O)C(c1ccccc1)c1ccccc1)c1ccccn1 | 3.04 µM | 4.66 µM |  | 10.9 µM | > 80 µM (inactive) | > 80 µM | 12 µM | 9.32 µM | 19.6 µM | 2.25 µM | 2.52 µM | 7.16 µM | 1.99 µM | 2.25 µM | 2.44 µM |
| Cc1cnc(C(=O)Nc2cccc3cccnc23)cn1 | inactive | 22.4 µM |  | > 80 µM | > 80 µM (inactive) | > 80 µM | > 80 µM | > 80 µM | > 80 µM | 28.6 µM | > 80 µM |  | 28.6 µM | 6.94 µM | 12 µM |
| Cc1ccc2c(c1)C1CN(C)CCC1N2C(=S)NC(=O)c1ccc(Br)cc1 (stereo not drawn) | inactive | 12.5 µM |  | 18.4 µM | > 80 µM (inactive) | > 80 µM | 12 µM | 10.9 µM | 12.3 µM | 14 µM | 15.5 µM | 12.9 µM | 12.5 µM | 6.99 µM | 11.2 µM |
